Laboratory results taken from PubChem BioAssay (NCI).
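Cells were grown in 96-well plates and exposed to each compound for 48 hours at five concentrations; endpoints were interpolated linearly between bracketing concentrations, or set to the highest concentration if not reached. TGI: concentration producing complete growth inhibition.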

Key:
Test in all cases: NCI-60 cell line screen, 48 h
DMS 114 small cell lung = system: DMS 114 small cell lung
DMS 273 small cell lung = system: DMS 273 small cell lung
HOP-18 NSCLC = system: HOP-18 NSCLC
KM20L2 colon = system: KM20L2 colon
RXF-631 renal = system: RXF-631 renal
SNB-78 CNS = system: SNB-78 CNS
XF 498 CNS = system: XF 498 CNS

Structure (SMILES)	TGI (DMS 114 small cell lung) [µM]	TGI (DMS 273 small cell lung) [µM]	TGI (HOP-18 NSCLC) [µM]	TGI (KM20L2 colon) [µM]	TGI (RXF-631 renal) [µM]	TGI (SNB-78 CNS) [µM]	TGI (XF 498 CNS) [µM]
CC12CCC([C@H](N3CCOCC3)/C1=N\OCCN1CCCC1)C2(C)C (some centres undefined)	> 100	> 100	> 100	> 100	> 100	> 100	
COc1ccc(N(C)CN(C)c2nc(N(C)C)nc(N(C)C)n2)cc1	> 100	> 100	> 100	> 100		> 100	
CCCCCCCC(=O)OC[C@@H](C[As](=O)(O)O)OC(=O)CCCCCCC	22.3	26.1	44.1	31.2		30.8	
O=C1CSC(/C(=C/c2ccccc2)c2nc3ccccc3[nH]2)=N1	> 100			> 100		> 100	> 100
CC1(c2cccc3c2C2(O)C=CC4(CCC32)OCCO4)OCCO1 (centres undefined)	> 100	> 100	> 100	> 100		> 100	
O=C(O)c1c[nH]c2c(=O)[nH]cnc12	> 100		> 100		> 100	> 100	
